Numbered stars: 1 amine (or outer) side, 2 acyl side, 3 side chain; on linkers, the order of the positions; unused ones are H or OH. Bridge positions count the residues as written; N and C are the ends. Side chains are listed from the residue outwards. Peptide text beside a SMILES is read from it. * marks the point of attachment. C20 diacid = O=C(O)CCCCCCCCCCCCCCCCCCC(=O)*; γGlu = O=C(O)[C@H](CCC(=O)[*:2])N[*:1]
Key:
Male Wistar rats = test: ASSAY (XII) effect from single subcutaneous administration on plasma calcium in rats; format: in vivo, rat; conditions: for Plasma calcium red (%) 0-12 h (maximal): single s.c., compared to vehicle; for suppression of plasma calcium level relative to vehicle: monitored over 24 hours
Description: Assay (XII)—Effect from Single Subcutaneous Administration of Analogue on Plasma Calcium in Rats
Male Wistar rats (Taconic Europe, ˜250 g at test date) were acclimatized to handling prior to the study. Rats were divided in groups of five and subcutaneously dosed with test compound at time=0. At time T=−15 min; 1 h, 2 h, 4 h, 7 h, 12 h, and 24 h a blood sample was obtained and heparin stabilized plasma was analysed for total calcium (Cobas, Hitachi). Data are illustrated in graphs as mean±SEM.

Male Sprague-Dawley rats = test: ASSAY (XI) single subcutaneous administration, food intake monitored for 48 hours in rats; format: in vivo, rat; conditions: for Food intake red (%) 0-24 h / Food intake red (%) 24-48 h: single s.c., compared to vehicle; for food intake monitored over 48 hours: single subcutaneous administration, versus vehicle
Source text: Assay (XI)—Effect from Single Subcutaneous Administration of Analogue on Plasma Calcium in Rats
Male Sprague-Dawley rats (Taconic Europe, ˜250 g at test date) were acclimatized to reversed day light cycle (lights on from 10 PM to 10 AM) and single housing in online food intake monitoring system (Ellegaard MBRose, Denmark) prior to study start. […] Data are illustrated in graphs as mean±SEM.

SMILES	Plasma calcium red (%) 0-12 h (maximal) (Male Wistar rats; 100 nmol/kg) [%]	suppression of plasma calcium level relative to vehicle (Male Wistar rats; single subcutaneous 100 nmol/kg)	Food intake red (%) 0-24 h (Male Sprague-Dawley rats; 3 nmol/kg) [%]	Food intake red (%) 24-48 h (Male Sprague-Dawley rats; 3 nmol/kg) [%]	Food intake red (%) 0-24 h (Male Sprague-Dawley rats; 30 nmol/kg) [%]	Food intake red (%) 24-48 h (Male Sprague-Dawley rats; 30 nmol/kg) [%]	Plasma calcium red (%) 0-12 h (maximal) (Male Wistar rats; 30 nmol/kg) [%]	suppression of plasma calcium level relative to vehicle (Male Wistar rats; single subcutaneous 30 nmol/kg)	suppression of plasma calcium level relative to vehicle (Male Wistar rats; single subcutaneous 1000 nmol/kg)	food intake monitored over 48 hours (Male Sprague-Dawley rats; 30 nmol/kg)
CC[C@H](C)[C@H](NC(=O)[C@H](C)NC(=O)CNC(=O)[C@H](Cc1ccccc1)NC(=O)[C@H](CC(N)=O)NC(=O)[C@@H]1CCCN1C(=O)[C@H](CO)NC(=O)[C@H](CO)NC(=O)[C@H](Cc1c[nH]cn1)NC(=O)[C@H](CCCNC(=N)N)NC(=O)[C@H](CC(C)C)NC(=O)[C@H](Cc1ccccc1)NC(=O)[C@H](CC(=O)O)NC(=O)[C@H](C)NC(=O)[C@H](CC(C)C)NC(=O)[C@H](CCCNC(=N)N)NC(=O)[C@H](CCC(N)=O)NC(=O)[C@@H](NC(=O)[C@H](C)NC(=O)[C@@H]1CSSC[C@H](NC(=O)[C@@H](N)CCCCNC(=O)CC[C@H](NC(=O)CC[C@H](NC(=O)CCCCCCCCCCCCCCCCCCC(=O)O)C(=O)O)C(=O)O)C(=O)N[C@@H](CC(N)=O)C(=O)N[C@@H]([C@@H](C)O)C(=O)N[C@@H](C)C(=O)N[C@@H]([C@@H](C)O)C(=O)N1)[C@@H](C)O)C(=O)N1CCC[C@H]1C(=O)N[C@@H](CO)C(=O)N[C@@H](CO)C(=O)N[C@H](C(=O)N[C@@H](CC(N)=O)C(=O)N[C@H](C(=O)NCC(=O)N[C@@H](CO)C(=O)N[C@@H](CC(=O)O)C(=O)N[C@H](C(=O)N[C@@H](Cc1ccc(O)cc1)C(N)=O)[C@@H](C)O)C(C)C)[C@@H](C)O [Example 2] (H-K([γGlu-γGlu-C20 diacid])CNTATCATQRLADFLRHSSPNFGAIPSSTNVGSDTY-NH2; disulfide 2-7; N-terminus assumed)	9	does not trigger a notable suppression of the calcium level	39	10	72	62				
CC[C@H](C)[C@H](NC(=O)[C@H](C)NC(=O)CNC(=O)[C@H](Cc1ccccc1)NC(=O)[C@H](CC(N)=O)NC(=O)[C@@H]1CCCN1C(=O)[C@H](CO)NC(=O)[C@H](CO)NC(=O)[C@H](Cc1c[nH]cn1)NC(=O)[C@H](CCCNC(=N)N)NC(=O)[C@H](CC(C)C)NC(=O)[C@H](Cc1ccccc1)NC(=O)[C@H](CCC(=O)O)NC(=O)[C@H](C)NC(=O)[C@H](CC(C)C)NC(=O)[C@H](CCCNC(=N)N)NC(=O)[C@H](CCC(N)=O)NC(=O)[C@@H](NC(=O)[C@H](C)NC(=O)[C@@H]1CSSC[C@H](NC(=O)[C@@H](N)CCCCNC(=O)CC[C@H](NC(=O)CCCCCCCCCCCCCCCCCCC(=O)O)C(=O)O)C(=O)N[C@@H](CC(N)=O)C(=O)N[C@@H]([C@@H](C)O)C(=O)N[C@@H](C)C(=O)N[C@@H]([C@@H](C)O)C(=O)N1)[C@@H](C)O)C(=O)N1CCC[C@H]1C(=O)N[C@@H](CO)C(=O)N[C@@H](CO)C(=O)N[C@H](C(=O)N[C@@H](CC(N)=O)C(=O)N[C@H](C(=O)NCC(=O)N[C@@H](CO)C(=O)N[C@@H](CCCNC(=N)N)C(=O)N[C@H](C(=O)N[C@@H](Cc1ccc(O)cc1)C(N)=O)[C@@H](C)O)C(C)C)[C@@H](C)O [Example 51] (H-K([γGlu-C20 diacid])CNTATCATQRLAEFLRHSSPNFGAIPSSTNVGSRTY-NH2; disulfide 2-7 (inferred); N-terminus assumed)					52	30	10	None of the example compounds at 30 nmol/kg trigger a notable suppression of the calcium level		
CC[C@H](C)[C@H](NC(=O)[C@H](C)NC(=O)CNC(=O)[C@H](Cc1ccccc1)NC(=O)[C@H](CC(N)=O)NC(=O)[C@@H]1CCCN1C(=O)[C@H](CO)NC(=O)[C@H](CO)NC(=O)[C@H](Cc1c[nH]cn1)NC(=O)[C@H](CCCNC(=N)N)NC(=O)[C@H](CC(C)C)NC(=O)[C@H](Cc1ccccc1)NC(=O)[C@H](CCC(=O)O)NC(=O)[C@H](C)NC(=O)[C@H](CC(C)C)NC(=O)[C@H](CCCNC(=N)N)NC(=O)[C@H](CCC(N)=O)NC(=O)[C@@H](NC(=O)[C@H](C)NC(=O)[C@@H]1CSSC[C@H](NC(=O)[C@@H](N)CCCCNC(=O)CC[C@H](NC(=O)CC[C@H](NC(=O)CCCCCCCCCCCCCCCCCCC(=O)O)C(=O)O)C(=O)O)C(=O)N[C@@H](CC(N)=O)C(=O)N[C@@H]([C@@H](C)O)C(=O)N[C@@H](C)C(=O)N[C@@H]([C@@H](C)O)C(=O)N1)[C@@H](C)O)C(=O)N1CCC[C@H]1C(=O)N[C@@H](CO)C(=O)N[C@@H](CO)C(=O)N[C@H](C(=O)N[C@@H](CC(N)=O)C(=O)N[C@H](C(=O)NCC(=O)N[C@@H](CO)C(=O)N[C@@H](CCCNC(=N)N)C(=O)N[C@H](C(=O)N[C@@H](Cc1ccc(O)cc1)C(N)=O)[C@@H](C)O)C(C)C)[C@@H](C)O [Example 89] (H-K([γGlu-γGlu-C20 diacid])CNTATCATQRLAEFLRHSSPNFGAIPSSTNVGSRTY-NH2; disulfide 2-7 (inferred); N-terminus assumed)					46	37	7	None of the example compounds at 30 nmol/kg trigger a notable suppression of the calcium level	induces a more pronounced suppression of the calcium level	reduce food intake
CC[C@H](C)[C@H](NC(=O)[C@H](C)NC(=O)CNC(=O)[C@H](Cc1ccccc1)NC(=O)[C@H](CC(N)=O)NC(=O)[C@@H]1CCCN1C(=O)[C@H](CO)NC(=O)[C@H](CO)NC(=O)[C@H](Cc1c[nH]cn1)NC(=O)[C@H](CCCNC(=N)N)NC(=O)[C@H](CC(C)C)NC(=O)[C@H](Cc1ccccc1)NC(=O)[C@H](CCC(=O)O)NC(=O)[C@H](C)NC(=O)[C@H](CC(C)C)NC(=O)[C@H](CCCNC(=N)N)NC(=O)[C@H](CCC(N)=O)NC(=O)[C@@H](NC(=O)[C@H](C)NC(=O)[C@@H]1CSSC[C@H](NC(=O)[C@@H](N)CCCCNC(=O)CC[C@H](NC(=O)CC[C@H](NC(=O)CCCCCCCCCCCCCCCCCCC(=O)O)C(=O)O)C(=O)O)C(=O)N[C@@H](CC(N)=O)C(=O)N[C@@H]([C@@H](C)O)C(=O)N[C@@H](C)C(=O)N[C@@H]([C@@H](C)O)C(=O)N1)[C@@H](C)O)C(=O)N1CCC[C@H]1C(=O)N[C@@H](CO)C(=O)N[C@@H](CO)C(=O)N[C@H](C(=O)N[C@@H](CC(N)=O)C(=O)N[C@H](C(=O)NCC(=O)N1CCC[C@H]1C(=O)N[C@@H](CCCNC(=N)N)C(=O)N[C@H](C(=O)N[C@@H](Cc1ccc(O)cc1)C(N)=O)[C@@H](C)O)C(C)C)[C@@H](C)O [Example 110] (H-K([γGlu-γGlu-C20 diacid])CNTATCATQRLAEFLRHSSPNFGAIPSSTNVGPRTY-NH2; disulfide 2-7)					68	31	8	None of the example compounds at 30 nmol/kg trigger a notable suppression of the calcium level		reduces food intake
CC[C@H](C)[C@H](NC(=O)[C@H](C)NC(=O)CNC(=O)[C@H](Cc1ccccc1)NC(=O)[C@H](CC(N)=O)NC(=O)[C@@H]1CCCN1C(=O)[C@H](CO)NC(=O)[C@H](CO)NC(=O)[C@H](Cc1c[nH]cn1)NC(=O)[C@H](CCCNC(=N)N)NC(=O)[C@H](CC(C)C)NC(=O)[C@H](Cc1ccccc1)NC(=O)[C@H](CCC(=O)O)NC(=O)[C@H](C)NC(=O)[C@H](CC(C)C)NC(=O)[C@H](CCCNC(=N)N)NC(=O)[C@H](CCC(N)=O)NC(=O)[C@@H](NC(=O)[C@H](C)NC(=O)[C@@H]1CSSC[C@H](NC(=O)[C@@H](N)CCCCNC(=O)CC[C@H](NC(=O)CCCCCCCCCCCCCCCCCCC(=O)O)C(=O)O)C(=O)N[C@@H](CC(N)=O)C(=O)N[C@@H]([C@@H](C)O)C(=O)N[C@@H](C)C(=O)N[C@@H]([C@@H](C)O)C(=O)N1)[C@@H](C)O)C(=O)N1CCC[C@H]1C(=O)N[C@@H](CO)C(=O)N[C@@H](CO)C(=O)N[C@H](C(=O)N[C@@H](CC(N)=O)C(=O)N[C@H](C(=O)NCC(=O)N1CCC[C@H]1C(=O)N[C@@H](CCCNC(=N)N)C(=O)N[C@H](C(=O)N[C@@H](Cc1ccc(O)cc1)C(N)=O)[C@@H](C)O)C(C)C)[C@@H](C)O [Example 117] (H-K([γGlu-C20 diacid])CNTATCATQRLAEFLRHSSPNFGAIPSSTNVGPRTY-NH2; disulfide 2-7; N-terminus assumed)					61	4	9	None of the example compounds at 30 nmol/kg trigger a notable suppression of the calcium level		reduces food intake
